Reference: ChEMBL document CHEMBL1201862, “PubChem BioAssay data set” (2004)
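These data come from cells grown in 96-well plates and exposed to compound for 48 hours at five concentrations. Here, GI50 denotes the concentration required for 50% inhibition of growth.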 Active and inactive are the calls of the source. Rule as the data show it: active = GI50 up to about 1.1 µM and inactive = higher.

How the values were obtained:
Experiment in all cases: DTP human tumour cell line panel, 48 h
HT-29 = tested on: HT-29
M14 = tested on: M14
OVCAR-5 = tested on: OVCAR-5
NCI-H23 = tested on: NCI-H23
U-251 = tested on: U-251
MDA-MB-231 = tested on: MDA-MB-231
T47D = tested on: T47D
NCI-H226 = tested on: NCI-H226
Hs-578T = tested on: Hs-578T
SK-MEL-2 = tested on: SK-MEL-2
UACC-62 = tested on: UACC-62
SF-268 = tested on: SF-268
MDA-N = tested on: MDA-N
SK-MEL-28 = tested on: SK-MEL-28
SF-539 = tested on: SF-539
BT-549 = tested on: BT-549
OVCAR-4 = tested on: OVCAR-4
NCI/ADR-RES = tested on: NCI/ADR-RES
SR = tested on: SR
SK-MEL-5 = tested on: SK-MEL-5

Row | SMILES | GI50 (HT-29) | GI50 (M14) | GI50 (OVCAR-5) | GI50 (NCI-H23) | GI50 (U-251) | GI50 (MDA-MB-231) | GI50 (T47D) | GI50 (NCI-H226) | GI50 (Hs-578T) | GI50 (SK-MEL-2) | GI50 (UACC-62) | GI50 (SF-268) | GI50 (MDA-N) | GI50 (SK-MEL-28) | GI50 (SF-539) | GI50 (BT-549) | GI50 (OVCAR-4) | GI50 (NCI/ADR-RES) | GI50 (SR) | GI50 (SK-MEL-5)
1 | CCOc1ccc2c(c1)/C(=C(\C(Cl)=C(Cl)Cl)[N+](=O)[O-])N2 | > 100 µM (inactive) | > 100 µM (inactive) | > 100 µM (inactive) | > 100 µM (inactive) | > 100 µM (inactive) | > 100 µM (inactive) | 48.9 µM (inactive) | > 100 µM (inactive) | > 100 µM (inactive) | > 100 µM (inactive) | > 100 µM (inactive) | 66.2 µM (inactive) | > 100 µM (inactive) | > 100 µM (inactive) | > 100 µM (inactive) | 28.2 µM (inactive) | 33.2 µM (inactive) | > 100 µM (inactive) |  | 
2 | O=c1oc2ccc3ccccc3c2cc1-c1nnc(Nc2ccccc2)s1 | 41 µM (inactive) | 37.2 µM (inactive) | > 100 µM (inactive) | 31 µM (inactive) | 7.59 µM (inactive) | 18.2 µM (inactive) | 77.1 µM (inactive) |  | 65 µM (inactive) | 18.9 µM (inactive) | 23.8 µM (inactive) | 61.8 µM (inactive) |  |  |  | 33.5 µM (inactive) | 20 µM (inactive) | 52.5 µM (inactive) | 19.3 µM (inactive) | 
3 | COC(=O)C1(C(=O)OC)N=C(C)OC1c1ccccn1 (stereo not drawn) |  | > 100 µM (inactive) | > 100 µM (inactive) | > 100 µM (inactive) | > 100 µM (inactive) |  | > 100 µM (inactive) | > 100 µM (inactive) |  | > 100 µM (inactive) | > 100 µM (inactive) |  | > 100 µM (inactive) | > 100 µM (inactive) |  | > 100 µM (inactive) | > 100 µM (inactive) | > 100 µM (inactive) | > 100 µM (inactive) | > 100 µM (inactive)
4 | CN1CCN(Cc2ccc(C(=S)Nc3ccccc3)s2)CC1 | 19.6 µM (inactive) | 16.7 µM (inactive) | 45.8 µM (inactive) | 18.5 µM (inactive) | 64.7 µM (inactive) |  | 59.2 µM (inactive) |  | 39.2 µM (inactive) | 41.8 µM (inactive) | 20.2 µM (inactive) | > 100 µM (inactive) | 35.6 µM (inactive) | 15.5 µM (inactive) | 82.4 µM (inactive) | 15.9 µM (inactive) | 54.1 µM (inactive) | 32.9 µM (inactive) | 21.2 µM (inactive) | 17.6 µM (inactive)
5 | O=S(=O)(Nc1ccc2ccc3cccc4ccc1c2c34)c1ccccc1 | 49.2 µM (inactive) | > 100 µM (inactive) | > 100 µM (inactive) | 96.6 µM (inactive) | 50.4 µM (inactive) | 30.8 µM (inactive) | 28.4 µM (inactive) | 19.4 µM (inactive) | 28.1 µM (inactive) | 70.5 µM (inactive) | 8.95 µM (inactive) | 43.6 µM (inactive) |  | > 100 µM (inactive) | 25.6 µM (inactive) | > 100 µM (inactive) | > 100 µM (inactive) | 35.1 µM (inactive) | 2.67 µM (inactive) | 14.1 µM (inactive)
6 | O=S(=O)(/N=C1/S/C(=N\c2ccccc2)N(c2ccccc2)/C1=N/S(=O)(=O)c1ccccc1)c1ccccc1 | 22.8 µM (inactive) | 20.4 µM (inactive) | 20.8 µM (inactive) | 16.4 µM (inactive) | 22.3 µM (inactive) | 13.7 µM (inactive) |  | 19.8 µM (inactive) | 29.6 µM (inactive) | 15.2 µM (inactive) | 17.2 µM (inactive) |  | 16.6 µM (inactive) | 16.6 µM (inactive) |  | 24.1 µM (inactive) |  |  | 18.1 µM (inactive) | 16.3 µM (inactive)
7 | O=C(CC(Cl)=C(Cl)Cl)c1ccccc1 | 31.6 µM (inactive) | 49.5 µM (inactive) | 46 µM (inactive) | 81.1 µM (inactive) | 57.1 µM (inactive) | 34.8 µM (inactive) | 34.7 µM (inactive) | 28.9 µM (inactive) | > 100 µM (inactive) | > 100 µM (inactive) | 37.5 µM (inactive) | > 100 µM (inactive) |  | 55.7 µM (inactive) | > 100 µM (inactive) | 66.1 µM (inactive) | 17.5 µM (inactive) | 74.8 µM (inactive) | 21.4 µM (inactive) | > 100 µM (inactive)
8 | COC1=CC(=O)c2c(O)ccc(O)c2C1=O | 1.72 µM (inactive) | 0.689 µM (active) | 18.4 µM (inactive) | 2.64 µM (inactive) | 13.1 µM (inactive) | 3.12 µM (inactive) | 18.1 µM (inactive) | 21.6 µM (inactive) | 6.4 µM (inactive) |  | 1.92 µM (inactive) | 7.26 µM (inactive) | 0.7 µM (active) | 1.92 µM (inactive) | 5.19 µM (inactive) | 2.44 µM (inactive) | 13.6 µM (inactive) | 19.8 µM (inactive) |  | 0.851 µM (active)
9 | Cc1ccc(S(=O)(=O)NC(=O)N[C@@H](Cc2c[nH]cn2)C(=O)O)cc1 | > 100 µM (inactive) | > 100 µM (inactive) | > 100 µM (inactive) | > 100 µM (inactive) | > 100 µM (inactive) | > 100 µM (inactive) | > 100 µM (inactive) |  | > 100 µM (inactive) | > 100 µM (inactive) | > 100 µM (inactive) | > 100 µM (inactive) | > 100 µM (inactive) | > 100 µM (inactive) | > 100 µM (inactive) | > 100 µM (inactive) | > 100 µM (inactive) | > 100 µM (inactive) |  | > 100 µM (inactive)
10 | CC1(C)OC(=O)C2(O1)C(=O)C1CCCCC12 (stereo not drawn) | > 100 µM (inactive) | > 100 µM (inactive) | 44.6 µM (inactive) | > 100 µM (inactive) | 97.1 µM (inactive) | 3.84 µM (inactive) | > 100 µM (inactive) | 45.4 µM (inactive) | 32.4 µM (inactive) | > 100 µM (inactive) | 82.4 µM (inactive) | > 100 µM (inactive) | 30.9 µM (inactive) | > 100 µM (inactive) |  | 23.9 µM (inactive) | 9.73 µM (inactive) | > 100 µM (inactive) |  | > 100 µM (inactive)
11 | COc1ccc(CN2C[C@H]3[C@@H](CC(=O)O[C@H]3C)CC2=O)cc1 | > 100 µM (inactive) | > 100 µM (inactive) | > 100 µM (inactive) | > 100 µM (inactive) | > 100 µM (inactive) | > 100 µM (inactive) |  |  | > 100 µM (inactive) | > 100 µM (inactive) | > 100 µM (inactive) | > 100 µM (inactive) | > 100 µM (inactive) | > 100 µM (inactive) |  | > 100 µM (inactive) | > 100 µM (inactive) | > 100 µM (inactive) | > 100 µM (inactive) | > 100 µM (inactive)
12 | CC(N)(/C=C/c1ccccc1)C(=O)O (stereo not drawn) | > 100 µM (inactive) | > 100 µM (inactive) | > 100 µM (inactive) | > 100 µM (inactive) | > 100 µM (inactive) | > 100 µM (inactive) |  | > 100 µM (inactive) | 67.3 µM (inactive) | > 100 µM (inactive) | > 100 µM (inactive) | > 100 µM (inactive) | > 100 µM (inactive) | > 100 µM (inactive) | > 100 µM (inactive) | > 100 µM (inactive) | > 100 µM (inactive) | > 100 µM (inactive) | > 100 µM (inactive) | > 100 µM (inactive)
13 | CC1=NN(c2nc(N)nc(CS(C)(=O)=O)n2)C(C)(C)C1 | > 100 µM (inactive) | > 100 µM (inactive) |  | > 100 µM (inactive) | > 100 µM (inactive) | > 100 µM (inactive) | > 100 µM (inactive) |  | > 100 µM (inactive) | > 100 µM (inactive) | > 100 µM (inactive) | > 100 µM (inactive) |  | > 100 µM (inactive) | > 100 µM (inactive) | > 100 µM (inactive) | > 100 µM (inactive) | > 100 µM (inactive) | > 100 µM (inactive) | > 100 µM (inactive)
14 | COc1cc2c(cc1O)-c1c(cnn1-c1ccc([N+](=O)[O-])cc1)CCC2 | 16.4 µM (inactive) | 16.6 µM (inactive) | 22.4 µM (inactive) | 13.8 µM (inactive) | 11.7 µM (inactive) | 12 µM (inactive) | 19.8 µM (inactive) | 15.7 µM (inactive) | 19.7 µM (inactive) | 17.4 µM (inactive) | 1.79 µM (inactive) | 8.95 µM (inactive) |  | 20.4 µM (inactive) | 11.1 µM (inactive) | 21.6 µM (inactive) | 19.1 µM (inactive) | 14.4 µM (inactive) |  | 13.4 µM (inactive)
15 | CCN(CC)CCC(=O)O[C@H]1CC[C@H](CC(C)[C@H]2CC(=O)C(C)C=C(C)[C@H](OC(=O)CCN(CC)CC)C(OC)C(=O)[C@@H](C)CC(C)/C=C/C=C/C=C(C)C(OC)CC3CC[C@H](C)[C@](O)(O3)C(=O)C(=O)N3CCCCC3C(=O)O2)CC1OC (stereo partly drawn) | 0.21 µM (active) | 0.35 µM (active) | 1.31 µM (inactive) | 0.161 µM (active) | 0.0883 µM (active) | 0.228 µM (active) | 0.0144 µM (active) | 0.0209 µM (active) | 0.0345 µM (active) | 0.0214 µM (active) | 0.0448 µM (active) | 0.348 µM (active) | 0.294 µM (active) | 0.0284 µM (active) | 0.0185 µM (active) | < 0.01 µM (active) | < 0.0132 µM (active) | 0.697 µM (active) |  | 0.173 µM (active)
